Our source for the relative viability values is the supplement of paper PMC10307832.

Each structure is given as a SMILES string.

One assay deals with NCI-H1792. Description: relative viability (nuclei count vs DMSO), 5 days (fraction); higher = more cells survive. To be noted: first compound 8 µM. The method, boiled down: (§1)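 Relative viability is defined as nuclei in treated wells over nuclei in vehicle wells. Duplicate plates were run and medians reported. Lung cancer cell lines in 1536-well plates were dosed by pin tool one day after seeding, with one drug or with a fixed anchor-drug dose plus five library-drug doses (not always all listed) in √10 steps, and nuclei were counted after 5 days.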
For the compound `CCCCCCCCCCCC1=C(O)C(=O)C=C(O)C1=O` [Embelin] + NC(=O)Nc1cc(-c2cccc(F)c2)sc1C(=O)N[C@H]1CCCNC1 [AZD7762] (partner 0.2 µM), the relative viability was found to be 0.547.

In the next assay the test system is NCI-H2085. Described as above. Particulars: first compound 0.08 µM. In short, it runs like this: as §1
For `CCCCCCCCCCCC1=C(O)C(=O)C=C(O)C1=O` [Embelin] + N=C(N)NC(=N)NCCc1ccccc1 [Phenformin] (partner 250 µM), the relative viability is 0.708.

Regarding `CCCCCCCCCCCC1=C(O)C(=O)C=C(O)C1=O` [Embelin] + O=C(c1cc(Cc2n[nH]c(=O)c3ccccc23)ccc1F)N1CCN(C(=O)C2CC2)CC1 [Olaparib] (partner 8 µM), the relative viability was determined as 0.727.

`CCCCCCCCCCCC1=C(O)C(=O)C=C(O)C1=O` [Embelin] + CC(=O)Nc1cccc(-n2c(=O)n(C3CC3)c(=O)c3c(Nc4ccc(I)cc4F)n(C)c(=O)c(C)c32)c1 [Trametinib] (partner 0.02 µM) yielded a relative viability of 0.663.

On to `CCCCCCCCCCCC1=C(O)C(=O)C=C(O)C1=O` [Embelin] + Nc1ncn([C@H]2C[C@H](O)[C@@H](CO)O2)c(=O)n1 [Decitabine] (partner 2 µM), for which the relative viability was 0.538.

For the compound `CCCCCCCCCCCC1=C(O)C(=O)C=C(O)C1=O` [Embelin] + NC(=O)Nc1cc(-c2cccc(F)c2)sc1C(=O)N[C@H]1CCCNC1 [AZD7762] (partner 0.2 µM), the relative viability is 0.956.

The same assay, now with this note: first compound 0.8 µM.
On to `CCCCCCCCCCCC1=C(O)C(=O)C=C(O)C1=O` [Embelin] + N=C(N)NC(=N)NCCc1ccccc1 [Phenformin] (partner 250 µM), for which the relative viability stood at 0.884.

The compound `CCCCCCCCCCCC1=C(O)C(=O)C=C(O)C1=O` [Embelin] + O=C(c1cc(Cc2n[nH]c(=O)c3ccccc23)ccc1F)N1CCN(C(=O)C2CC2)CC1 [Olaparib] (partner 8 µM) showed a relative viability of 0.73.

In turn, `CCCCCCCCCCCC1=C(O)C(=O)C=C(O)C1=O` [Embelin] + CC(=O)Nc1cccc(-n2c(=O)n(C3CC3)c(=O)c3c(Nc4ccc(I)cc4F)n(C)c(=O)c(C)c32)c1 [Trametinib] (partner 0.02 µM) gave a relative viability of 0.579.

The compound `CCCCCCCCCCCC1=C(O)C(=O)C=C(O)C1=O` [Embelin] + Nc1ncn([C@H]2C[C@H](O)[C@@H](CO)O2)c(=O)n1 [Decitabine] (partner 2 µM) gave a relative viability of 0.602.

For the compound `CCCCCCCCCCCC1=C(O)C(=O)C=C(O)C1=O` [Embelin] + NC(=O)Nc1cc(-c2cccc(F)c2)sc1C(=O)N[C@H]1CCCNC1 [AZD7762] (partner 0.2 µM), the relative viability came out at 1.09.

The assay is the same for the next values; noted with them: first compound 2.53 µM.
`CCCCCCCCCCCC1=C(O)C(=O)C=C(O)C1=O` [Embelin] + N=C(N)NC(=N)NCCc1ccccc1 [Phenformin] (partner 250 µM) returned a relative viability of 0.73.

In turn, `CCCCCCCCCCCC1=C(O)C(=O)C=C(O)C1=O` [Embelin] + O=C(c1cc(Cc2n[nH]c(=O)c3ccccc23)ccc1F)N1CCN(C(=O)C2CC2)CC1 [Olaparib] (partner 8 µM) returned a relative viability of 0.842.

Consider `CCCCCCCCCCCC1=C(O)C(=O)C=C(O)C1=O` [Embelin] + CC(=O)Nc1cccc(-n2c(=O)n(C3CC3)c(=O)c3c(Nc4ccc(I)cc4F)n(C)c(=O)c(C)c32)c1 [Trametinib] (partner 0.02 µM), for which the relative viability was determined as 0.532.

Take `CCCCCCCCCCCC1=C(O)C(=O)C=C(O)C1=O` [Embelin] + Nc1ncn([C@H]2C[C@H](O)[C@@H](CO)O2)c(=O)n1 [Decitabine] (partner 2 µM): the relative viability worked out at 0.531.

With `CCCCCCCCCCCC1=C(O)C(=O)C=C(O)C1=O` [Embelin] + NC(=O)Nc1cc(-c2cccc(F)c2)sc1C(=O)N[C@H]1CCCNC1 [AZD7762] (partner 0.2 µM), the relative viability amounted to 0.93.

The assay is the same for the next values; noted with them: first compound 8 µM.
As to `CCCCCCCCCCCC1=C(O)C(=O)C=C(O)C1=O` [Embelin] + N=C(N)NC(=N)NCCc1ccccc1 [Phenformin] (partner 250 µM), the relative viability was 0.664.

Take `CCCCCCCCCCCC1=C(O)C(=O)C=C(O)C1=O` [Embelin] + O=C(c1cc(Cc2n[nH]c(=O)c3ccccc23)ccc1F)N1CCN(C(=O)C2CC2)CC1 [Olaparib] (partner 8 µM): the relative viability was 0.777.

`CCCCCCCCCCCC1=C(O)C(=O)C=C(O)C1=O` [Embelin] + CC(=O)Nc1cccc(-n2c(=O)n(C3CC3)c(=O)c3c(Nc4ccc(I)cc4F)n(C)c(=O)c(C)c32)c1 [Trametinib] (partner 0.02 µM) returned a relative viability of 0.448.

`CCCCCCCCCCCC1=C(O)C(=O)C=C(O)C1=O` [Embelin] + Nc1ncn([C@H]2C[C@H](O)[C@@H](CO)O2)c(=O)n1 [Decitabine] (partner 2 µM): the relative viability was 0.504.

`CCCCCCCCCCCC1=C(O)C(=O)C=C(O)C1=O` [Embelin] + NC(=O)Nc1cc(-c2cccc(F)c2)sc1C(=O)N[C@H]1CCCNC1 [AZD7762] (partner 0.2 µM) registered a relative viability of 1.03.

The test system of a further assay is NCI-H2228. Described as above. To be noted: first compound 0.08 µM. In short, it runs like this:
as §1
`CCCCCCCCCCCC1=C(O)C(=O)C=C(O)C1=O` [Embelin] + N=C(N)NC(=N)NCCc1ccccc1 [Phenformin] (partner 250 µM) returned a relative viability of 0.332.

As for `CCCCCCCCCCCC1=C(O)C(=O)C=C(O)C1=O` [Embelin] + O=C(c1cc(Cc2n[nH]c(=O)c3ccccc23)ccc1F)N1CCN(C(=O)C2CC2)CC1 [Olaparib] (partner 8 µM), the relative viability came to 0.474.

Regarding `CCCCCCCCCCCC1=C(O)C(=O)C=C(O)C1=O` [Embelin] + CC(=O)Nc1cccc(-n2c(=O)n(C3CC3)c(=O)c3c(Nc4ccc(I)cc4F)n(C)c(=O)c(C)c32)c1 [Trametinib] (partner 0.02 µM), the relative viability was determined as 0.491.

The assay is the same for the next values; noted with them: first compound 0.8 µM.
In turn, `CCCCCCCCCCCC1=C(O)C(=O)C=C(O)C1=O` [Embelin] + N=C(N)NC(=N)NCCc1ccccc1 [Phenformin] (partner 250 µM) came in with a relative viability of 0.314.

Regarding `CCCCCCCCCCCC1=C(O)C(=O)C=C(O)C1=O` [Embelin] + O=C(c1cc(Cc2n[nH]c(=O)c3ccccc23)ccc1F)N1CCN(C(=O)C2CC2)CC1 [Olaparib] (partner 8 µM), the relative viability was found to be 0.886.

With `CCCCCCCCCCCC1=C(O)C(=O)C=C(O)C1=O` [Embelin] + CC(=O)Nc1cccc(-n2c(=O)n(C3CC3)c(=O)c3c(Nc4ccc(I)cc4F)n(C)c(=O)c(C)c32)c1 [Trametinib] (partner 0.02 µM), the relative viability is 0.523.

Still in this assay, the particulars now being: first compound 2.53 µM.
Compound `CCCCCCCCCCCC1=C(O)C(=O)C=C(O)C1=O` [Embelin] + N=C(N)NC(=N)NCCc1ccccc1 [Phenformin] (partner 250 µM) registered a relative viability of 0.403.

The compound `CCCCCCCCCCCC1=C(O)C(=O)C=C(O)C1=O` [Embelin] + O=C(c1cc(Cc2n[nH]c(=O)c3ccccc23)ccc1F)N1CCN(C(=O)C2CC2)CC1 [Olaparib] (partner 8 µM) gave a relative viability of 0.735.

With `CCCCCCCCCCCC1=C(O)C(=O)C=C(O)C1=O` [Embelin] + CC(=O)Nc1cccc(-n2c(=O)n(C3CC3)c(=O)c3c(Nc4ccc(I)cc4F)n(C)c(=O)c(C)c32)c1 [Trametinib] (partner 0.02 µM), the relative viability stood at 0.609.
